In brackets after ≈: the same amount, converted by molar mass.
How the values were obtained:
[1] = Cytotoxicity, microtetrazolium test (MTT); settings: dog, MDCK cells, CC50 (MDCK), mean ±SD

Row | Compound | melting point [°C] | CC50 at 48 h [1] [µg/mL]
1 | CCOC(=O)c1c(N(Cc2ccccc2Cl)C(C)=O)sc2cc(O)ccc12 | 176 to 180 | –
2 | CCOC(=O)c1c(N(Cc2ccc(Cl)cc2)C(C)=O)sc2c(Cl)c(O)ccc12 | 174 to 176 | –
3 | CCOC(=O)c1c(N(Cc2ccc(Cl)cc2)C(C)=O)sc2cc(O)ccc12 | 172 to 176 | –
4 | CCOC(=O)c1c(N(Cc2ccc(C)cc2)C(C)=O)sc2c(Cl)c(O)ccc12 | 170 to 172 | –
5 | CCOC(=O)c1c(N(Cc2ccc(C)cc2)C(C)=O)sc2cc(O)ccc12 | 145 to 147 | –
6 | COC(=O)c1c(N(Cc2ccccc2Cl)C(C)=O)sc2c(Cl)c(O)ccc12 | 229 to 233 | –
7 | COC(=O)c1c(N(Cc2ccc(C)cc2)C(C)=O)sc2c(Cl)c(O)ccc12 | 195 to 197 | –
8 | COC(=O)c1c(N(Cc2ccc(C)cc2)C(C)=O)sc2cc(O)ccc12 | 160 to 164 | –
9 | COC(=O)c1c(N(Cc2ccccc2C(F)(F)F)C(C)=O)sc2c(Cl)c(O)ccc12 | 182 to 186 | –
10 | COC(=O)c1c(N(Cc2ccccc2C(F)(F)F)C(C)=O)sc2cc(O)ccc12 | 165 to 169 | –
11 | CC(=O)N(Cc1ccc(F)cc1)c1sc2c(Cl)c(O)ccc2c1C(=O)O | 220 to 224 | –
12 | COC(=O)c1c(N(Cc2cccc(F)c2)C(C)=O)sc2cc(O)ccc12 | 145 to 150 | –
13 | COC(=O)c1c(N(Cc2cccc3ccccc23)C(C)=O)sc2c(Cl)c(O)ccc12 | 210 to 212 | –
14 | COC(=O)c1c(N(Cc2ccc3ccccc3c2)C(C)=O)sc2cc(O)ccc12 | 200 to 202 | –
15 | COC(=O)c1c(N(CCc2ccccc2)C(C)=O)sc2c(Cl)c(O)ccc12 | 150 to 155 | –
16 | COC(=O)c1c(N(Cc2ccccc2C)C(C)=O)sc2c(Cl)c(O)ccc12 | 182 to 184 | –
17 | COC(=O)c1c(N(Cc2ccccc2C)C(C)=O)sc2cc(O)ccc12 | 164 to 168 | –
18 | COC(=O)c1c(N(Cc2ccccc2C#N)C(C)=O)sc2c(Cl)c(O)ccc12 | 204 to 208 | –
19 | COC(=O)c1c(N(Cc2ccccc2C#N)C(C)=O)sc2cc(O)ccc12 | 168 to 172 | –
20 | COC(=O)c1c(N(CCc2ccccc2F)C(C)=O)sc2c(Cl)c(O)ccc12 | 172 to 174 | –
21 | COC(=O)c1c(N(CCc2ccccc2F)C(C)=O)sc2cc(O)ccc12 | 183 to 185 | –
22 | CC(=O)N(Cc1ccccc1)c1sc2c(Cl)c(O)ccc2c1C#N | 176 to 178 | –
23 | COC(=O)c1c(N(Cc2ccc(F)cc2)C(C)=O)sc2c(CN(C)C)c(O)ccc12 | 145 to 149 | –
24 | CC(=O)N(Cc1ccccc1)c1sc2cc(O)ccc2c1C(=O)OC(C)(C)C | 185 to 190 | –
25 | CC(=O)N(Cc1ccccc1F)c1sc2c(Cl)c(O)ccc2c1C(=O)O | 230 to 234 | –
26 | CC(=O)N(Cc1ccccc1F)c1sc2cc(O)ccc2c1C(=O)O | 140 to 145 | –
27 | CNC(=O)c1c(N(Cc2ccccc2)C(C)=O)sc2c(CN(C)C)c(O)ccc12 | 145 to 147 | –

Row | Compound | melting point [°C] | CC50 at 48 h [1] [µg/mL]
28 | CCOC(=O)c1c(N(Cc2ccccc2)C(C)=O)sc2c(Cl)c(O)ccc12 [Example 1, Ethyl 2-[acetyl(benzyl)amino]-7-chloro-6-hydroxy-1-benzothiophene-3-carboxylate] | 151 to 155 | > 300
29 | CCOC(=O)c1c(N(Cc2ccccc2)C(C)=O)sc2cc(O)ccc12 [Example 2, Ethyl 2-[acetyl(benzyl)amino]-6-hydroxy-1-benzothiophene-3-carboxylate] | 146 to 148 | 11.7 ± 0.6 (≈ 31.7 µM)
30 | COC(=O)c1c(N(Cc2ccccc2)C(C)=O)sc2c(Cl)c(O)ccc12 [Example 3, Methyl 2-[acetyl(benzyl)amino]-7-chloro-6-hydroxy-1-benzothiophene-3-carboxylate] | – | 4.5 ± 0.3 (≈ 11.5 µM)
31 | CC(=O)N(Cc1ccccc1)c1sc2c(Cl)c(O)ccc2c1C(=O)OC(C)(C)C [Example 5, Tert-butyl 2-[acetyl(benzyl)amino]-7-chloro-6-hydroxy-1-benzothiophene-3-carboxylate] | 200 to 205 | 4.1 ± 0.2 (≈ 9.49 µM)
32 | CC(=O)N(Cc1ccccc1)c1sc2c(Cl)c(O)ccc2c1C(=O)OC(C)C [Example 7, Isopropyl 2-[acetyl(benzyl)amino]-7-chloro-6-hydroxy-1-benzothiophene-3-carboxylate] | 164 to 168 | 2.2 ± 0.3 (≈ 5.26 µM)
33 | CC(=O)N(Cc1ccccc1)c1sc2cc(O)ccc2c1C(=O)OC(C)C [Example 8, Isopropyl 2-[acetyl(benzyl)amino]-6-hydroxy-1-benzothiophene-3-carboxylate] | 126 to 130 | 13.9 ± 1.1 (≈ 36.2 µM)
34 | CCOC(=O)c1c(N(Cc2ccccc2Cl)C(C)=O)sc2c(Cl)c(O)ccc12 [Example 9, Ethyl 2-[acetyl(2-chlorobenzyl)amino]-7-chloro-6-hydroxy-1-benzothiophene-3-carboxylate] | 174 to 178 | 8.3 ± 0.3 (≈ 18.9 µM)
35 | COC(=O)c1c(N(Cc2ccccc2Cl)C(C)=O)sc2cc(O)ccc12 [Example 16, Methyl 2-[acetyl(2-chlorobenzyl)amino]-6-hydroxy-1-benzothiophene-3-carboxylate] | 220 to 224 | 21 (≈ 53.9 µM)
36 | COC(=O)c1c(N(Cc2ccc(C(F)(F)F)cc2)C(C)=O)sc2c(Cl)c(O)ccc12 [Example 21, Methyl 2-[acetyl(4-trifluoromethylbenzyl)amino]-7-chloro-6-hydroxy-1-benzothiophene-3-carboxylate] | 176 to 180 | 5.6 ± 0.2 (≈ 12.2 µM)
37 | COC(=O)c1c(N(Cc2ccc(C(F)(F)F)cc2)C(C)=O)sc2cc(O)ccc12 [Example 22, Methyl 2-[acetyl(4-trifluoromethylbenzyl)amino]-6-hydroxy-1-benzothiophene-3-carboxylate] | 171 to 175 | 3.2 ± 0.8 (≈ 7.56 µM)
38 | COC(=O)c1c(N(Cc2ccccc2F)C(C)=O)sc2cc(O)ccc12 [Example 24, Methyl 2-[acetyl(2-fluorobenzyl)amino]-6-hydroxy-1-benzothiophene-3-carboxylate] | 165 to 167 | > 300
39 | COC(=O)c1c(N(Cc2cccc(F)c2)C(C)=O)sc2c(Cl)c(O)ccc12 [Example 25, Methyl 2-[acetyl(3-fluorobenzyl)amino]-7-chloro-6-hydroxy-1-benzothiophene-3-carboxylate] | 152 to 155 | 25.5 ± 2.7 (≈ 62.5 µM)
40 | COC(=O)c1c(N(Cc2ccc(F)cc2)C(C)=O)sc2c(Cl)c(O)ccc12 [Example 27, Methyl 2-[acetyl(4-fluorobenzyl)amino]-7-chloro-6-hydroxy-1-benzothiophene-3-carboxylate] | 233 to 235 | 39.8 ± 2.5 (≈ 97.6 µM)
41 | COC(=O)c1c(N(Cc2ccc(F)cc2)C(C)=O)sc2cc(O)ccc12 [Example 28, Methyl 2-[acetyl(4-fluorobenzyl)amino]-6-hydroxy-1-benzothiophene-3-carboxylate] | 198 to 202 | 240 ± 19 (≈ 643 µM)
42 | COC(=O)c1c(N(Cc2ccc(F)cc2F)C(C)=O)sc2c(Cl)c(O)ccc12 [Example 29, Methyl 2-[acetyl(2,4-difluorobenzyl)amino]-7-chloro-6-hydroxy-1-benzothiophene-3-carboxylate] | 205 to 210 | > 300
43 | COC(=O)c1c(N(Cc2ccc(F)cc2F)C(C)=O)sc2cc(O)ccc12 [Example 30, Methyl 2-[acetyl(2,4-difluorobenzyl)amino]-6-hydroxy-1-benzothiophene-3-carboxylate] | 178 to 180 | > 300
44 | COC(=O)c1c(N(Cc2cccc3ccccc23)C(C)=O)sc2cc(O)ccc12 [Example 32, Methyl 2-[acetyl(1-naphthylmethyl)amino]-6-hydroxy-1-benzothiophene-3-carboxylate] | 198 to 202 | > 300
45 | COC(=O)c1c(N(Cc2ccc3ccccc3c2)C(C)=O)sc2c(Cl)c(O)ccc12 [Example 33, Methyl 2-[acetyl(2-naphthylmethyl)amino]-7-chloro-6-hydroxy-1-benzothiophene-3-carboxylate] | 185 to 190 | 3.7 ± 0.4 (≈ 8.41 µM)
46 | COC(=O)c1c(N(CCc2ccccc2)C(C)=O)sc2cc(O)ccc12 [Example 36, Methyl 2-[acetyl(2-phenylethyl)amino]-6-hydroxy-1-benzothiophene-3-carboxylate] | 190 to 194 | > 300
47 | COC(=O)c1c(N(C(C)=O)C(C)c2ccccc2)sc2c(Cl)c(O)ccc12 (centres unmarked) [Example 37, Methyl 2-[acetyl(1-phenylethyl)amino]-7-chloro-6-hydroxy-1-benzothiophene-3-carboxylate] | 195 to 200 | 24.5 ± 2.2 (≈ 60.7 µM)
48 | COC(=O)c1c(N(C(C)=O)C(C)c2ccccc2)sc2cc(O)ccc12 (centres unmarked) [Example 38, Methyl 2-[acetyl(1-phenylethyl)amino]-6-hydroxy-1-benzothiophene-3-carboxylate] | 152 to 157 | 30 (≈ 81.2 µM)
49 | COC(=O)c1c(N(Cc2ccc(C(C)C)cc2)C(C)=O)sc2c(Cl)c(O)ccc12 [Example 41, Methyl 2-[acetyl(4-isopropylbenzyl)amino]-7-chloro-6-hydroxy-1-benzothiophene-3-carboxylate] | 183 to 186 | 5 ± 0.5 (≈ 11.6 µM)
50 | COC(=O)c1c(N(Cc2ccc(C(C)C)cc2)C(C)=O)sc2cc(O)ccc12 [Example 42, Methyl 2-[acetyl(4-isopropylbenzyl)amino]-6-hydroxy-1-benzothiophene-3-carboxylate] | 141 to 145 | 10 (≈ 25.2 µM)
51 | CC(=O)N(Cc1ccccc1)c1sc2cc(O)ccc2c1C#N [Example 47, N-benzyl-N-(3-cyano-6-hydroxy-1-benzothiophene-2-yl)acetamide] | – | 16.8 ± 1.5 (≈ 52.1 µM)
52 | COC(=O)c1c(N(Cc2ccccc2Cl)C(C)=O)sc2c(CN(C)C)c(O)ccc12 [Example 51] | 132 to 136 | > 300
53 | COC(=O)c1c(N(Cc2cccc(F)c2)C(C)=O)sc2c(CN(C)C)c(O)ccc12 [Example 53] | 142 to 144 | > 300

Reference: patent publication US20240174629A1 (OTCPHARM JSC, priority 2021, published 2024)
